Consider nine sequences from patent US20260250318A1, “COMPOSITIONS AND METHODS FOR CROSSING THE BLOOD BRAIN BARRIER” (VOYAGER THERAPEUTICS, INC., priority 2022, published 2026).

The first experiment concerns brain. Kind of experiment: Matured TTM-001 and TTM-002 variants, NGS enrichment in mouse brain. In kind it is in vivo, mice. The settings on record: NGS fold-enrichment, mouse brain, relative to AAV9 control.
Regarding KNTNGSGSPHSKAQNQQT, the “Fold Enrichment relative to AAV9, Brain (Mouse)” value is 89.719 fold.

With KTINGHDSPHKSGQSKQA, the “Fold Enrichment relative to AAV9, Brain (Mouse)” value is reported as 7.510 fold.

Take KTVNAHDSPHKSGQNQLT: the “Fold Enrichment relative to AAV9, Brain (Mouse)” value was 29.254 fold.

Still in this experiment, the particulars now being: mouse brain; relative to AAV9 control.
Regarding KTEGISGSPHSKAQNQQT, the “Fold Enrichment relative to AAV9, Brain (Mouse)” value turned out to be 78.303 fold.

KTELRSGSPHSKAQNQQT: the “Fold Enrichment relative to AAV9, Brain (Mouse)” value is given as 57.814 fold.

Turning to KTINGNGSPHSKSQNQHT, the “Fold Enrichment relative to AAV9, Brain (Mouse)” value was 56.614 fold.

In the case of KTINGSGSPHSKASPRQT, the “Fold Enrichment relative to AAV9, Brain (Mouse)” value was found to be 67.241 fold.

As to KNVNGSGSPHSKAQNQQT, the “Fold Enrichment relative to AAV9, Brain (Mouse)” value is given as 53.379 fold.

On to KTEYNSGSPHSKAQNQQT, for which the “Fold Enrichment relative to AAV9, Brain (Mouse)” value is on record as 62.679 fold.

A further experiment has as its system brains, heart, liver, muscle, and DRG of the NHPs. Kind of experiment: Maturation of TTM-001 and TTM-002 capsids, NGS enrichment in NHP tissues. As to conditions: NGS fold-enrichment of RNA, NHP brain, relative to AAV9 control. Type of experiment: in vivo. The procedure, abridged:
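Variants carry mutations within and flanking the loop IV peptide insert: positions 450–466 were triplet-randomized, while positions 449–466 received low-frequency point mutations. The combined pool went into two NHPs, and each peptide was scored by NGS enrichment ratio against AAV9.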
For KNTNGSGSPHSKAQNQQT, the “Fold Enrichment relative to AAV9, Brain (NHP)” value is 78.445 fold.

Regarding KTINGHDSPHKSGQSKQA, the “Fold Enrichment relative to AAV9, Brain (NHP)” value came out at 101.460 fold.

KTVNAHDSPHKSGQNQLT: the “Fold Enrichment relative to AAV9, Brain (NHP)” value is on record as 79.137 fold.

Staying with this experiment, now noted: NGS fold-enrichment of matured AAV capsid variants; NHP brain, RNA; relative to AAV9 control.
In the case of KTEGISGSPHSKAQNQQT, the “Fold Enrichment relative to AAV9, Brain (NHP)” value was found to be 53.270 fold.

As for KTELRSGSPHSKAQNQQT, the “Fold Enrichment relative to AAV9, Brain (NHP)” value is recorded as 54.289 fold.

For KTINGNGSPHSKSQNQHT, the “Fold Enrichment relative to AAV9, Brain (NHP)” value was 51.379 fold.

Turning to KTINGSGSPHSKASPRQT, the “Fold Enrichment relative to AAV9, Brain (NHP)” value was found to be 50.227 fold.

With KNVNGSGSPHSKAQNQQT, the “Fold Enrichment relative to AAV9, Brain (NHP)” value is listed as 58.481 fold.

Take KTEYNSGSPHSKAQNQQT: the “Fold Enrichment relative to AAV9, Brain (NHP)” value was found to be 50.256 fold.

Staying with this experiment, now noted: NGS fold-enrichment, NHP DRG, relative to AAV9 control.
Consider KNTNGSGSPHSKAQNQQT, for which the “Fold Enrichment relative to AAV9, DRG (NHP)” value was found to be 0.000 fold.

On to KTINGHDSPHKSGQSKQA, for which the “Fold Enrichment relative to AAV9, DRG (NHP)” value is on record as 0.000 fold.

For KTVNAHDSPHKSGQNQLT, the “Fold Enrichment relative to AAV9, DRG (NHP)” value is given as 0.000 fold.

Still in this experiment, the particulars now being: NGS fold-enrichment, NHP heart, relative to AAV9 control.
For the sequence KNTNGSGSPHSKAQNQQT, the “Fold Enrichment relative to AAV9, Heart (NHP)” value came to 0.000 fold.

Regarding KTINGHDSPHKSGQSKQA, the “Fold Enrichment relative to AAV9, Heart (NHP)” value was 0.222 fold.

Take KTVNAHDSPHKSGQNQLT: the “Fold Enrichment relative to AAV9, Heart (NHP)” value worked out at 0.233 fold.

The same experiment, now with this note: NGS fold-enrichment, NHP liver DNA, relative to AAV9 control.
Turning to KNTNGSGSPHSKAQNQQT, the “Fold Enrichment relative to AAV9, Liver DNA (NHP)” value was 0.177 fold.

In the case of KTINGHDSPHKSGQSKQA, the “Fold Enrichment relative to AAV9, Liver DNA (NHP)” value is on record as 0.114 fold.

With KTVNAHDSPHKSGQNQLT, the “Fold Enrichment relative to AAV9, Liver DNA (NHP)” value came to 0.045 fold.

Staying with this experiment, now noted: NGS fold-enrichment, NHP liver RNA, relative to AAV9 control.
On to KNTNGSGSPHSKAQNQQT, for which the “Fold Enrichment relative to AAV9, Liver RNA (NHP)” value came out at 0.571 fold.

In the case of KTINGHDSPHKSGQSKQA, the “Fold Enrichment relative to AAV9, Liver RNA (NHP)” value was 0.185 fold.

As for KTVNAHDSPHKSGQNQLT, the “Fold Enrichment relative to AAV9, Liver RNA (NHP)” value turned out to be 0.753 fold.

The same experiment, now with this note: NGS fold-enrichment, NHP muscle, relative to AAV9 control.
With KNTNGSGSPHSKAQNQQT, the “Fold Enrichment relative to AAV9, Muscle (NHP)” value turned out to be 0.000 fold.

Take KTINGHDSPHKSGQSKQA: the “Fold Enrichment relative to AAV9, Muscle (NHP)” value came to 0.000 fold.

As to KTVNAHDSPHKSGQNQLT, the “Fold Enrichment relative to AAV9, Muscle (NHP)” value was determined as 0.178 fold.

The same experiment, now with this note: NHP DRG; relative to AAV9 control.
Take KTEGISGSPHSKAQNQQT: the “Fold Enrichment relative to AAV9, DRG (NHP)” value came to 0.000 fold.

In the case of KTELRSGSPHSKAQNQQT, the “Fold Enrichment relative to AAV9, DRG (NHP)” value was determined as 0.000 fold.

Consider KTINGNGSPHSKSQNQHT, for which the “Fold Enrichment relative to AAV9, DRG (NHP)” value stood at 0.000 fold.

As for KTINGSGSPHSKASPRQT, the “Fold Enrichment relative to AAV9, DRG (NHP)” value is listed as 0.088 fold.

Take KNVNGSGSPHSKAQNQQT: the “Fold Enrichment relative to AAV9, DRG (NHP)” value is recorded as 0.000 fold.

Take KTEYNSGSPHSKAQNQQT: the “Fold Enrichment relative to AAV9, DRG (NHP)” value is 0.000 fold.

Still in this experiment, the particulars now being: NHP heart; relative to AAV9 control.
As to KTEGISGSPHSKAQNQQT, the “Fold Enrichment relative to AAV9, Heart (NHP)” value is 0.000 fold.

Turning to KTELRSGSPHSKAQNQQT, the “Fold Enrichment relative to AAV9, Heart (NHP)” value came to 0.007 fold.

As to KTINGNGSPHSKSQNQHT, the “Fold Enrichment relative to AAV9, Heart (NHP)” value came to 0.054 fold.

With KTINGSGSPHSKASPRQT, the “Fold Enrichment relative to AAV9, Heart (NHP)” value is reported as 0.005 fold.

With KNVNGSGSPHSKAQNQQT, the “Fold Enrichment relative to AAV9, Heart (NHP)” value worked out at 0.000 fold.

KTEYNSGSPHSKAQNQQT: the “Fold Enrichment relative to AAV9, Heart (NHP)” value is reported as 0.000 fold.

The same experiment, now with this note: NHP liver, DNA; relative to AAV9 control.
Regarding KTEGISGSPHSKAQNQQT, the “Fold Enrichment relative to AAV9, Liver DNA (NHP)” value came to 0.010 fold.

For the sequence KTELRSGSPHSKAQNQQT, the “Fold Enrichment relative to AAV9, Liver DNA (NHP)” value stood at 0.239 fold.

As for KTINGNGSPHSKSQNQHT, the “Fold Enrichment relative to AAV9, Liver DNA (NHP)” value is given as 0.082 fold.

As to KTINGSGSPHSKASPRQT, the “Fold Enrichment relative to AAV9, Liver DNA (NHP)” value is listed as 0.530 fold.

For KNVNGSGSPHSKAQNQQT, the “Fold Enrichment relative to AAV9, Liver DNA (NHP)” value is on record as 0.166 fold.

Turning to KTEYNSGSPHSKAQNQQT, the “Fold Enrichment relative to AAV9, Liver DNA (NHP)” value is recorded as 0.009 fold.

The experiment is the same for the next values; noted with them: NHP liver, RNA; relative to AAV9 control.
With KTEGISGSPHSKAQNQQT, the “Fold Enrichment relative to AAV9, Liver RNA (NHP)” value is reported as 0.000 fold.

For the sequence KTELRSGSPHSKAQNQQT, the “Fold Enrichment relative to AAV9, Liver RNA (NHP)” value worked out at 0.790 fold.

With KTINGNGSPHSKSQNQHT, the “Fold Enrichment relative to AAV9, Liver RNA (NHP)” value is 0.000 fold.

Turning to KTINGSGSPHSKASPRQT, the “Fold Enrichment relative to AAV9, Liver RNA (NHP)” value came out at 1.761 fold.

With KNVNGSGSPHSKAQNQQT, the “Fold Enrichment relative to AAV9, Liver RNA (NHP)” value is recorded as 0.917 fold.

Consider KTEYNSGSPHSKAQNQQT, for which the “Fold Enrichment relative to AAV9, Liver RNA (NHP)” value was 0.000 fold.

The experiment is the same for the next values; noted with them: NHP muscle; relative to AAV9 control.
On to KTEGISGSPHSKAQNQQT, for which the “Fold Enrichment relative to AAV9, Muscle (NHP)” value is 0.000 fold.

Turning to KTELRSGSPHSKAQNQQT, the “Fold Enrichment relative to AAV9, Muscle (NHP)” value was determined as 0.040 fold.

KTINGNGSPHSKSQNQHT: the “Fold Enrichment relative to AAV9, Muscle (NHP)” value stood at 0.000 fold.

KTINGSGSPHSKASPRQT: the “Fold Enrichment relative to AAV9, Muscle (NHP)” value is on record as 0.068 fold.

For KNVNGSGSPHSKAQNQQT, the “Fold Enrichment relative to AAV9, Muscle (NHP)” value was determined as 0.000 fold.

Regarding KTEYNSGSPHSKAQNQQT, the “Fold Enrichment relative to AAV9, Muscle (NHP)” value turned out to be 0.000 fold.
